From US20240174671A1, “New 2,3-Dihydro-1H-pyrrolo[3,2-b]pyridine Derivatives as Sigma Ligands” (ACONDICIONAMIENTO TARRASENSE, priority 2021, published 2024)
Like-named read-outs stand apart in the source and are kept apart here.

Columns and labels:
human σ1 receptor = biological target: T1, human σ1 receptor (Homo sapiens, UniProt Q99720); assay: Human σ1 receptor radioligand assay ([3H](+)-pentazocine); format: binding
T1 construct: expressed in transfected cells; host or cells: HEK-293
Method in brief: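 Binding used [3H](+)-pentazocine, 120 min at 37° C, with non-specific binding defined by 10 μM haloperidol. Bound radioligand was collected by filtration, washed with ice-cold 10 mM Tris-HCl pH 7.4 and counted by scintillation.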

human σ2/TMEM97 receptor = biological target: T2, human σ2/TMEM97 receptor (Homo sapiens, UniProt Q5BJF2); assay: Binding assay to human σ2/TMEM97 receptor ([3H]-DTG); conditions: transfected HEK-293 membranes, 10 nM [3H]-DTG, 25° C., 120 minutes; read-out: Binding σ-[…] (binding to σ2-receptor expressed as Ki)
T2 construct: expressed in transfected cells; host or cells: HEK-293
T2 sequence (Q5BJF2 whole entry): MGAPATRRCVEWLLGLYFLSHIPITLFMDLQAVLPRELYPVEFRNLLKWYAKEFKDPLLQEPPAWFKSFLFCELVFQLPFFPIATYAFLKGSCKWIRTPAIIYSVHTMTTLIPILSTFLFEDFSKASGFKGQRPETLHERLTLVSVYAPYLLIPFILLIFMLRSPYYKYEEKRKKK
Method in brief: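 Membranes from transfected HEK-293 cells incubated with 10 nM [3H]-DTG in 50 mM Tris-HCl pH 8.0, 120 min at 25 °C; non-specific binding defined with 10 μM haloperidol. Bound radioactivity counted after filtration; compounds tested as % inhibition at 1 or 10 μM or at five concentrations for Ki.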

sigma-2 site = sigma-2 site (Homo sapiens, UniProt Q5BJF2); conditions: background statement; cited from earlier work
sigma-2 site, sequence (Q5BJF2 whole entry): as above

[1] = test system: mechanical hypersensitivity in SNI mice; conditions: SNI mice model of neuropathic pain; cited from earlier work
[2] = transfected HEK-293 membranes, 5 nM [3H](+)-pentazocine, 37° C., 120 minutes, read-out: Binding σ-[…] (binding to σ1-receptor expressed as Ki)

T1 sequence (Q99720 whole entry): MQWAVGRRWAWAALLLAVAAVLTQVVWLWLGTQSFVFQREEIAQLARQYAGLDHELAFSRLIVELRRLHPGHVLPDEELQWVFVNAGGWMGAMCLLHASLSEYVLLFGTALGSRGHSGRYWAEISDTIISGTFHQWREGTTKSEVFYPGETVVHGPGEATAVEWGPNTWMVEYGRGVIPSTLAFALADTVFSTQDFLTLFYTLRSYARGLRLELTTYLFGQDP

Compound	Ki (human σ1 receptor; [2]) [nM]	Ki (human σ2/TMEM97 receptor) [nM]	Ki (human σ1 receptor) [nM]	affinity for the sigma-2 site (sigma-2 site)	mechanical hypersensitivity [1]
Cc1ccc2c(n1)C(C)(C)CN2C(=O)[C@H]1CC[C@H](N(C)Cc2ccc(F)c(F)c2)CC1 [Example 170, ((1r,4r)-4-((3,4-difluorobenzyl)(methyl)amino)cyclohexyl)(3,3,5-trimethyl-2,3-dihydro-1H-pyrrolo[3,2-b]pyridin-1-yl)methanone]	< 100	< 100			
Cc1ccc2c(n1)C(C)(C)CN2C(=O)[C@H]1CC[C@H](N(C)Cc2c(F)cccc2F)CC1 [Example 171, ((1r,4r)-4-((2,6-difluorobenzyl)(methyl)amino)cyclohexyl)(3,3,5-trimethyl-2,3-dihydro-1H-pyrrolo[3,2-b]pyridin-1-yl)methanone]	< 100	< 100			
Cc1ccc2c(n1)C(C)(C)CN2C(=O)[C@H]1CC[C@H](N(C)Cc2ccc(F)cc2F)CC1 [Example 172, ((1r,4r)-4-((2,4-difluorobenzyl)(methyl)amino)cyclohexyl)(3,3,5-trimethyl-2,3-dihydro-1H-pyrrolo[3,2-b]pyridin-1-yl)methanone]	< 100	< 100			
Cc1ccc2c(n1)C(C)(C)CN2C(=O)[C@H]1CC[C@H](N(C)Cc2cc(F)ccc2F)CC1 [Example 173, ((1r,4r)-4-((2,5-difluorobenzyl)(methyl)amino)cyclohexyl)(3,3,5-trimethyl-2,3-dihydro-1H-pyrrolo[3,2-b]pyridin-1-yl)methanone]	< 100	< 100			
Cc1ccc2c(n1)C(C)(C)CN2C(=O)[C@H]1CC[C@H](N(C)Cc2cccc(F)c2F)CC1 [Example 174, ((1r,4r)-4-((2,3-difluorobenzyl)(methyl)amino)cyclohexyl)(3,3,5-trimethyl-2,3-dihydro-1H-pyrrolo[3,2-b]pyridin-1-yl)methanone]	< 100	< 100			
CN(Cc1ccccc1F)[C@H]1CC[C@H](C(=O)N2CC(C)(C)c3ncccc32)CC1 [Example 175, (3,3-dimethyl-2,3-dihydro-1H-pyrrolo[3,2-b]pyridin-1-yl)((1r,4r)-4-((2-fluorobenzyl)(methyl)amino)cyclohexyl)methanone]	< 100	< 100			
CN(Cc1cc(F)ccc1F)[C@H]1CC[C@H](C(=O)N2CC(C)(C)c3ncccc32)CC1 [Example 176, ((1r,4r)-4-((2,5-difluorobenzyl)(methyl)amino)cyclohexyl)(3,3-dimethyl-2,3-dihydro-1H-pyrrolo[3,2-b]pyridin-1-yl)methanone]	< 100	< 100			
Cc1ccc2c(n1)C(C)(C)CN2C(=O)[C@H]1CC[C@H](N(C)Cc2ccnc(C(F)(F)F)c2)CC1 [Example 177, ((1r,4r)-4-(methyl((2-(trifluoromethyl)pyridin-4-yl)methyl)amino)cyclohexyl)(3,3,5-trimethyl-2,3-dihydro-1H-pyrrolo[3,2-b]pyridin-1-yl)methanone]	100 to 500	< 100			
Cc1ccc2c(n1)C(C)(C)CN2C(=O)[C@H]1CC[C@H](N(C)Cc2ncccc2F)CC1 [Example 178, ((1r,4r)-4-(((3-fluoropyridin-2-yl)methyl)(methyl)amino)cyclohexyl)(3,3,5-trimethyl-2,3-dihydro-1H-pyrrolo[3,2-b]pyridin-1-yl)methanone]	< 100	100 to 500			
Cc1ccc2c(n1)C(C)(C)CN2C(=O)[C@H]1CC[C@H](N(C)Cc2ccc(F)cn2)CC1 [Example 179, ((1r,4r)-4-(((5-fluoropyridin-2-yl)methyl)(methyl)amino)cyclohexyl)(3,3,5-trimethyl-2,3-dihydro-1H-pyrrolo[3,2-b]pyridin-1-yl)methanone]	< 100	100 to 500			
Cc1ccc2c(n1)C(C)(C)CN2C(=O)[C@H]1CC[C@H](N(C)Cc2ccc(C#N)c(F)c2)CC1 [Example 180, 2-fluoro-4-((methyl((1r,4r)-4-(3,3,5-trimethyl-2,3-dihydro-1H-pyrrolo[3,2-b]pyridine-1-carbonyl)cyclohexyl)amino)methyl)benzonitrile]	< 100	< 100			
Cc1ccc2c(n1)C(C)(C)CN2C(=O)[C@H]1CC[C@H](N(C)Cc2ccc(F)c(C#N)c2)CC1 [Example 181, 2-fluoro-5-((methyl((1r,4r)-4-(3,3,5-trimethyl-2,3-dihydro-1H-pyrrolo[3,2-b]pyridine-1-carbonyl)cyclohexyl)amino)methyl)benzonitrile]	< 100	< 100			
Cc1ccc2c(n1)C(C)(C)CN2C(=O)[C@H]1CC[C@H](N(C)Cc2ccc(F)cc2)CC1 [Example 182, ((1r,4r)-4-((4-fluorobenzyl)(methyl)amino)cyclohexyl)(3,3,5-trimethyl-2,3-dihydro-1H-pyrrolo[3,2-b]pyridin-1-yl)methanone]	< 100	< 100			
Cc1ccc2c(n1)C(C)(C)CN2C(=O)[C@H]1CC[C@H](N(C)Cc2ccccc2F)CC1 [Example 183, ((1r,4r)-4-((2-fluorobenzyl)(methyl)amino)cyclohexyl)(3,3,5-trimethyl-2,3-dihydro-1H-pyrrolo[3,2-b]pyridin-1-yl)methanone]		< 100	< 100		
Cc1ccc2c(n1)C(C)(C)CN2C(=O)[C@H]1CC[C@H](N(C)Cc2ccc(C(F)(F)F)nc2)CC1 [Example 184, ((1r,4r)-4-(methyl((6-(trifluoromethyl)pyridin-3-yl)methyl)amino)cyclohexyl)(3,3,5-trimethyl-2,3-dihydro-1H-pyrrolo[3,2-b]pyridin-1-yl)methanone]	< 100	< 100			
Cc1ccc2c(n1)C(C)(C)CN2C(=O)[C@H]1CC[C@H](N(C)CC2CCOCC2)CC1 [Example 185, ((1r,4r)-4-(methyl((tetrahydro-2H-pyran-4-yl)methyl)amino)cyclohexyl)(3,3,5-trimethyl-2,3-dihydro-1H-pyrrolo[3,2-b]pyridin-1-yl)methanone]	100 to 500	< 100			
CN(Cc1ccccc1)[C@H]1CC[C@H](C(=O)N2CC(C)(C)c3nc(C(F)(F)F)ccc32)CC1 [Example 186, ((1r,4r)-4-(benzyl(methyl)amino)cyclohexyl)(3,3-dimethyl-5-(trifluoromethyl)-2,3-dihydro-1H-pyrrolo[3,2-b]pyridin-1-yl)methanone]	< 100	> 1000			
CN(Cc1ccccc1)[C@H]1CC[C@H](C(=O)N2CC(C)(C)c3ncc(F)cc32)CC1 [Example 187, ((1r,4r)-4-(benzyl(methyl)amino)cyclohexyl)(6-fluoro-3,3-dimethyl-2,3-dihydro-1H-pyrrolo[3,2-b]pyridin-1-yl)methanone]	< 100	< 100			
Cc1ccc2c(n1)C(C)(C)CN2C(=O)[C@H]1CC[C@H](NCc2ccccc2F)CC1 [Example 188, ((1r,4r)-4-((2-fluorobenzyl)amino)cyclohexyl)(3,3,5-trimethyl-2,3-dihydro-1H-pyrrolo[3,2-b]pyridin-1-yl)methanone]	< 100	< 100			
(+)-SKF-10047				micromolar affinity	
UKH-1114					relieved mechanical hypersensitivity
